Here are results for 6 compounds from patent US11834450B2, “Compounds having ((3-nitrophenyl)sulfonyl)acetamide as BCL-2 inhibitors” (Eil Therapeutics, Inc., priority 2021, dated 2023).

Each structure is given as a SMILES string.

Series [1] is described as follows: Cell viability assay HEK293 (CellTiter-Glo). In kind it is cell-based. The note with it: human, HEK293 cells, read-out: HEK293 (CC50 code). Summed up: (§1)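 Cells were seeded at 2000/well (HEK293, in DMEM, pre-incubated a day) or 4000/well (other lines, in RPMI-1640). Serially diluted compound was added and plates incubated 3 days at 37 °C, with viability read by CellTiter-Glo luminescence.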
(In general: ATP-based viability assays read luminescence as a measure of living cells.)

Series [2] has as its system MOLT-4 cells. Nature of the series: Cell viability assay MOLT-4 (CellTiter-Glo). In kind it is cell-based. The note with it: Homo sapiens, 72 h; MOLT-4 cells, 3 days, CellTiter-Glo; read-out: MOLT-4 (CC50 code). In a few lines:
as §1

Series [3] addresses T1, BCL-2 (Homo sapiens, UniProt P10415).
T1 construct: purchased BPS Bioscience #50222
Nature of the series: BCL-2 TR-FRET Assay (primary PPI inhibition). In kind it is binding. The note with it: 60 min incubation; read-out: BCL2 (IC50 code, BCL-2 TR-FRET). A general note: Time-resolved FRET reads energy transfer from a long-lived donor to a nearby acceptor.

Series [4] has as its target T2, BCL-XL (Homo sapiens, UniProt Q07817).
T2 construct: purchased BPS Bioscience #50223
Nature of the series: BCL-XL TR-FRET Assay (primary PPI inhibition). Format: binding. The conditions noted are these: 60 min incubation; read-out: BCLxL (IC50 code, BCL-XL TR-FRET). In a few lines:
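TR-FRET readout (ex 340 nm; em 620/665 nm; 60 μs delay, 500 μs integration) after a 60 min incubation. Mix: compound, 10.5 ng BCL-XL, BCL-XL peptide ligand at 1:80, plus anti-His Tb donor and dye acceptor each at 1:100.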

Series [5] concerns caspase-3 and -7 activities in RS4-11 cells. As to the kind of experiment: Cas-3/7 activation (Caspase-Glo 3/7) in RS4-11 cells. In kind it is cell-based. The note with it: Homo sapiens, 3.5 h at 37° C. and 30 min at r.t., read-out: Cas-3/7 (EC50 code). In a few lines: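 RS4-11 cells were exposed to graded compound concentrations for 3.5 h at 37° C/5% CO2, then 30 min at room temperature. Caspase-3/7 activity was measured by luminescence after 30 min with a DEVD luminogenic substrate reagent.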

Series [6] concerns RS4-11 cells. Nature of the series: Cell viability assay RS4-11 (CellTiter-Glo). In kind it is cell-based. The conditions noted are these: Homo sapiens, 72 h; RS4-11 cells, 3 days, CellTiter-Glo; read-out: RS4-11 (CC50 code). In a few lines:
as §1

As usually defined, the CC50 is the concentration giving 50% cytotoxicity. What is called IC50 is the midpoint of a concentration-inhibition curve.

T2 sequence (Q07817 whole entry): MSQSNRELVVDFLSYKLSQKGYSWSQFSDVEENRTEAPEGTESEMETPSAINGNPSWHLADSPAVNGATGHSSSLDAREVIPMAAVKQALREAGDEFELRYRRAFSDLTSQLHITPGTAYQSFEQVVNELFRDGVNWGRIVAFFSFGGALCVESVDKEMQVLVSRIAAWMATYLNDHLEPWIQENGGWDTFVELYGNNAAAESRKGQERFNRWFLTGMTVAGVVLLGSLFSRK
T1 sequence (P10415 whole entry): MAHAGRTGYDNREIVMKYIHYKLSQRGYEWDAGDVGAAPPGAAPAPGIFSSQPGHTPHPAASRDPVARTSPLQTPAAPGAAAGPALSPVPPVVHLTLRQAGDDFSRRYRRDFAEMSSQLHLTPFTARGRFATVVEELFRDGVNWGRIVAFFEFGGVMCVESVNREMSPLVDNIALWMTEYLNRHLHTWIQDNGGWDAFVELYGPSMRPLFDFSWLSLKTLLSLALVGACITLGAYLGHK

On to `O=C(NS(=O)(=O)c1ccc(NC2CCOC2)c([N+](=O)[O-])c1)c1ccc(N2CCC(CN3CCCCC3c3ccc(Cl)cc3)CC2)cc1Oc1cnc2[nH]ccc2c1` (stereo not drawn) [Compound 63, 4-[4-[[2-(4-chlorophenyl)-1-piperidyl]methyl]-1-piperidyl]-N-[3-nitro-4-(tetrahydrofuran-3-ylamino)phenyl]sulfonyl-2-(1H-pyrrolo[2,3-b]pyridin-5-yloxy)benzamide], for which the cytotoxic concentration (CC50) at 3 days in series [1] is above 25 µM. Also, the figures for the CC50 in series [2] and in series [6] were 2 to 10 µM and above 0.2 µM, respectively. In addition, the half-inhibitory concentration (IC50) in series [3] was above 0.05 µM; in series [4] it was 2 to 4 µM. For the same compound, the EC50 in series [5] is above 0.25 µM.
For `CN1C(=O)CC[C@H](CN2CCN(c3ccc(C(=O)NS(=O)(=O)c4ccc(NCC5CCOCC5)c([N+](=O)[O-])c4)c(Oc4cnc5[nH]ccc5c4)c3)CC2)[C@H]1c1ccc(Cl)cc1` [Compound 72, 4-[4-[[(2S,3R)-2-(4-chlorophenyl)-1-methyl-6-oxo-3-piperidyl]methyl]piperazin-1-yl]-N-[3-nitro-4-(tetrahydropyran-4-ylmethylamino)phenyl]sulfonyl-2-(1H-pyrrolo[2,3-b]pyridin-5-yloxy)benzamide], the CC50 at 3 days in series [1] was above 25 µM. Besides, the CC50 in series [2] is above 10 µM; in series [6] it was above 0.2 µM. Moreover, the concentration for half-maximal inhibition (IC50) in series [3] was above 0.05 µM; in series [4], at most 2 µM. For the same compound, in series [5], the EC50 is above 0.25 µM.
Take `CC1=C(C)C[C@H](c2ccc(Cl)cc2)[C@@H](CN2CCN(c3ccc(C(=O)NS(=O)(=O)c4ccc(NCC5CCOCC5)c([N+](=O)[O-])c4)c(Oc4cnc5[nH]ccc5c4)c3)CC2)C1` [Compound 75, 4-[4-[[(1S,6S)-6-(4-chlorophenyl)-3,4-dimethyl-cyclohex-3-en-1-yl]methyl]piperazin-1-yl]-N-[3-nitro-4-(tetrahydropyran-4-ylmethylamino)phenyl]sulfonyl-2-(1H-pyrrolo[2,3-b]pyridin-5-yloxy)benzamide]: in series [1], the CC50 at 3 days is above 25 µM. Besides, the CC50 in series [2] is 2 to 10 µM; in series [6], above 0.2 µM. Further, the figures for the IC50 in series [3] and in series [4] were above 0.05 µM and at most 2 µM, respectively. Also, in series [5], the EC50 is above 0.25 µM.
Turning to `O=C(NS(=O)(=O)c1ccc(NCC2CCOCC2)c([N+](=O)[O-])c1)c1ccc(N2CCN(C[C@@H]3Cc4ccccc4CN3C(=O)C3CCNC3)CC2)cc1Oc1cnc2[nH]ccc2c1` (stereo partly drawn) [Compound 78, N-[3-nitro-4-(tetrahydropyran-4-ylmethylamino)phenyl]sulfonyl-4-[4-[[(3S)-2-(pyrrolidine-3-carbonyl)-3,4-dihydro-1H-isoquinolin-3-yl]methyl]piperazin-1-yl]-2-(1H-pyrrolo[2,3-b]pyridin-5-yloxy)benzamide], the cytotoxic concentration (CC50) at 3 days in series [1] was above 25 µM. Also, the CC50 in series [2] is above 10 µM; in series [6], above 0.2 µM. Moreover, the IC50 in series [3] was in the range of 0.005 to 0.01 µM; in series [4] it was 2 to 4 µM. For the same compound, in series [5], the EC50 was above 0.25 µM.
Turning to `O=C(NS(=O)(=O)c1ccc(NC2CCS(=O)(=O)CC2)c([N+](=O)[O-])c1)c1ccc(N2CCC(CN3CCCCC3c3ccc(Cl)cc3)CC2)cc1Oc1cnc2[nH]ccc2c1` (stereo not drawn) [Compound 79, 4-[4-[[2-(4-chlorophenyl)-1-piperidyl]methyl]-1-piperidyl]-N-[4-[(1,1-dioxothian-4-yl)amino]-3-nitro-phenyl]sulfonyl-2-(1H-pyrrolo[2,3-b]pyridin-5-yloxy)benzamide], the CC50 at 3 days in series [1] was above 25 µM. The half-maximal cytotoxic concentration (CC50) in series [2] is 2 to 10 µM; in series [6] it was above 0.2 µM. Moreover, the IC50 is above 0.05 µM in series [3] and above 4 µM in series [4]. Besides, the EC50 in series [5] is above 0.25 µM.
Regarding `O=C(NS(=O)(=O)c1ccc(NCC2CCOCC2)c([N+](=O)[O-])c1)c1ccc(N2CCN(CC34CC(O)CCC3(c3ccc(Cl)cc3)C4)CC2)cc1Oc1cnc2[nH]ccc2c1` (stereo not drawn) [Compound 80, 4-[4-[[6-(4-chlorophenyl)-3-hydroxy-norcaran-1-yl]methyl]piperazin-1-yl]-N-[3-nitro-4-(tetrahydropyran-4-ylmethylamino)phenyl]sulfonyl-2-(1H-pyrrolo[2,3-b]pyridin-5-yloxy)benzamide], the half-maximal cytotoxic concentration (CC50) at 3 days in series [1] lay within 10 to 25 µM. Also, the CC50 in series [2] was above 10 µM; in series [6], above 0.2 µM. Further, the figures for the half-maximal inhibitory concentration (IC50) in series [3] and in series [4] were above 0.05 µM and at most 2 µM, respectively. In series [5], the EC50 was above 0.25 µM.
